Earlier results as cited in patent US11931445B2, “Composition comprising baicalin” (L'OREAL, priority 2016, dated 2024).

Experiments:
[1] = pH more than 6.5

Baicalin
chemical stability [1]: chemically unstable | solubility in an aqueous medium: very slightly soluble
